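Five compound concentrations were applied to cells in 96-well plates for 48 hours; endpoints were derived by simple linear interpolation of the resulting dose-response curve. TGI marks complete inhibition of growth.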
Experiments:
Test in all cases: DTP human tumour cell line panel, 48 h
NCI-H23 lung = test system: NCI-H23 lung
MALME-3M melanoma = test system: MALME-3M melanoma
M19-MEL melanoma = test system: M19-MEL melanoma
RPMI-8226 leukemia = test system: RPMI-8226 leukemia
786-0 renal = test system: 786-0 renal
MOLT-4 leukemia = test system: MOLT-4 leukemia
SF-268 CNS = test system: SF-268 CNS
IGROV1 ovarian = test system: IGROV1 ovarian
OVCAR-8 ovarian = test system: OVCAR-8 ovarian
M14 melanoma = test system: M14 melanoma
SK-OV-3 ovarian = test system: SK-OV-3 ovarian
HCC-2998 colon = test system: HCC-2998 colon
HCT-15 colon = test system: HCT-15 colon
SK-MEL-2 melanoma = test system: SK-MEL-2 melanoma
ACHN renal = test system: ACHN renal
OVCAR-3 ovarian = test system: OVCAR-3 ovarian
CCRF-CEM leukemia = test system: CCRF-CEM leukemia
HL-60(TB) leukemia = test system: HL-60(TB) leukemia
A549 NSCLC = test system: A549 NSCLC
SW-620 colon = test system: SW-620 colon
SK-MEL-5 melanoma = test system: SK-MEL-5 melanoma
K-562 leukemia = test system: K-562 leukemia
SNB-75 CNS = test system: SNB-75 CNS
A498 renal = test system: A498 renal
SK-MEL-28 melanoma = test system: SK-MEL-28 melanoma
UO-31 renal = test system: UO-31 renal
NCI-H522 lung = test system: NCI-H522 lung
U251 CNS = test system: U251 CNS
KM20L2 colon = test system: KM20L2 colon
LOX IMVI melanoma = test system: LOX IMVI melanoma
HOP-62 NSCLC = test system: HOP-62 NSCLC
SNB-19 CNS = test system: SNB-19 CNS
SNB-78 CNS = test system: SNB-78 CNS
HOP-18 NSCLC = test system: HOP-18 NSCLC
SF-539 CNS = test system: SF-539 CNS
TK-10 renal = test system: TK-10 renal
UACC-62 melanoma = test system: UACC-62 melanoma
UACC-257 melanoma = test system: UACC-257 melanoma
NCI-H460 lung = test system: NCI-H460 lung
SF-295 CNS = test system: SF-295 CNS
DMS 114 small cell lung = test system: DMS 114 small cell lung
RXF-631 renal = test system: RXF-631 renal
EKVX NSCLC = test system: EKVX NSCLC
RXF 393 renal = test system: RXF 393 renal
OVCAR-5 ovarian = test system: OVCAR-5 ovarian
SN12C renal = test system: SN12C renal
KM12 colon = test system: KM12 colon
COLO 205 colon = test system: COLO 205 colon
LXFL 529 NSCLC = test system: LXFL 529 NSCLC
NCI-H226 lung = test system: NCI-H226 lung
OVCAR-4 ovarian = test system: OVCAR-4 ovarian
HCT-116 colon = test system: HCT-116 colon
SR leukemia = test system: SR leukemia
DMS 273 small cell lung = test system: DMS 273 small cell lung
CAKI-1 renal = test system: CAKI-1 renal
DLD-1 colon = test system: DLD-1 colon
XF 498 CNS = test system: XF 498 CNS
HT29 colon = test system: HT29 colon

Cc1cc(C(O)CCCc2ccccc2)cc(C)c1O (configuration not stated)
TGI (NCI-H23 lung): > 100 µM | TGI (MALME-3M melanoma): 64.3 µM | TGI (M19-MEL melanoma): > 100 µM | TGI (RPMI-8226 leukemia): > 100 µM | TGI (786-0 renal): > 100 µM | TGI (MOLT-4 leukemia): 73.8 µM | TGI (SF-268 CNS): > 100 µM | TGI (IGROV1 ovarian): > 100 µM | TGI (OVCAR-8 ovarian): > 100 µM | TGI (M14 melanoma): > 100 µM | TGI (SK-OV-3 ovarian): > 100 µM | TGI (HCC-2998 colon): > 100 µM | TGI (HCT-15 colon): > 100 µM | TGI (SK-MEL-2 melanoma): 70.3 µM | TGI (ACHN renal): 92.3 µM | TGI (OVCAR-3 ovarian): > 100 µM | TGI (CCRF-CEM leukemia): > 100 µM | TGI (HL-60(TB) leukemia): 41.9 µM | TGI (A549 NSCLC): > 100 µM | TGI (SW-620 colon): > 100 µM | TGI (SK-MEL-5 melanoma): 48.9 µM | TGI (K-562 leukemia): > 100 µM | TGI (SNB-75 CNS): 78 µM | TGI (A498 renal): 81.3 µM | TGI (SK-MEL-28 melanoma): > 100 µM | TGI (UO-31 renal): 60.4 µM | TGI (NCI-H522 lung): > 100 µM | TGI (U251 CNS): > 100 µM | TGI (KM20L2 colon): > 100 µM | TGI (LOX IMVI melanoma): > 100 µM | TGI (HOP-62 NSCLC): > 100 µM | TGI (SNB-19 CNS): 67.2 µM | TGI (SNB-78 CNS): > 100 µM | TGI (HOP-18 NSCLC): > 100 µM | TGI (SF-539 CNS): > 100 µM | TGI (TK-10 renal): > 100 µM | TGI (UACC-62 melanoma): > 100 µM | TGI (UACC-257 melanoma): 95.6 µM | TGI (NCI-H460 lung): > 100 µM | TGI (SF-295 CNS): 93.9 µM | TGI (DMS 114 small cell lung): > 100 µM | TGI (RXF-631 renal): > 100 µM | TGI (EKVX NSCLC): 75.9 µM | TGI (RXF 393 renal): 60 µM | TGI (OVCAR-5 ovarian): > 100 µM | TGI (SN12C renal): > 100 µM | TGI (KM12 colon): > 100 µM | TGI (COLO 205 colon): > 100 µM | TGI (LXFL 529 NSCLC): > 100 µM | TGI (NCI-H226 lung): > 100 µM

O=C(Nc1ccc(Nc2ccc(NC(=O)c3ccccc3)c3c2C(=O)c2ccccc2C3=O)c2c1C(=O)c1ccccc1C2=O)c1ccccc1
TGI (MALME-3M melanoma): > 100 µM | TGI (M19-MEL melanoma): > 100 µM | TGI (RPMI-8226 leukemia): > 100 µM | TGI (786-0 renal): > 100 µM | TGI (MOLT-4 leukemia): > 100 µM | TGI (SF-268 CNS): > 100 µM | TGI (IGROV1 ovarian): > 100 µM | TGI (OVCAR-8 ovarian): > 100 µM | TGI (M14 melanoma): > 100 µM | TGI (SK-OV-3 ovarian): > 100 µM | TGI (HCC-2998 colon): > 100 µM | TGI (HCT-15 colon): > 100 µM | TGI (SK-MEL-2 melanoma): > 100 µM | TGI (ACHN renal): > 100 µM | TGI (OVCAR-3 ovarian): > 100 µM | TGI (OVCAR-4 ovarian): > 100 µM | TGI (CCRF-CEM leukemia): > 100 µM | TGI (HCT-116 colon): > 100 µM | TGI (SR leukemia): > 100 µM | TGI (HL-60(TB) leukemia): > 100 µM | TGI (A549 NSCLC): > 100 µM | TGI (SW-620 colon): > 100 µM | TGI (SK-MEL-5 melanoma): > 100 µM | TGI (K-562 leukemia): > 100 µM | TGI (SNB-75 CNS): > 100 µM | TGI (A498 renal): > 100 µM | TGI (DMS 273 small cell lung): > 100 µM | TGI (SK-MEL-28 melanoma): > 100 µM | TGI (UO-31 renal): > 100 µM | TGI (NCI-H522 lung): > 100 µM | TGI (U251 CNS): > 100 µM | TGI (KM20L2 colon): > 100 µM | TGI (HOP-62 NSCLC): > 100 µM | TGI (CAKI-1 renal): > 100 µM | TGI (DLD-1 colon): > 100 µM | TGI (SNB-19 CNS): > 100 µM | TGI (SNB-78 CNS): > 100 µM | TGI (HOP-18 NSCLC): > 100 µM | TGI (SF-539 CNS): > 100 µM | TGI (TK-10 renal): > 100 µM | TGI (UACC-62 melanoma): > 100 µM | TGI (UACC-257 melanoma): > 100 µM | TGI (NCI-H460 lung): > 100 µM | TGI (DMS 114 small cell lung): > 100 µM | TGI (RXF-631 renal): > 100 µM | TGI (EKVX NSCLC): > 100 µM | TGI (RXF 393 renal): > 100 µM | TGI (SN12C renal): > 100 µM | TGI (KM12 colon): > 100 µM | TGI (COLO 205 colon): > 100 µM | TGI (LXFL 529 NSCLC): > 100 µM | TGI (NCI-H226 lung): > 100 µM

C=CCc1cc(OC)c(O)c(C(=O)/C=C/c2ccc(OC)c(OC)c2)c1
TGI (NCI-H23 lung): 30.5 µM | TGI (MALME-3M melanoma): 37 µM | TGI (RPMI-8226 leukemia): 3.31 µM | TGI (786-0 renal): 35.9 µM | TGI (XF 498 CNS): 27 µM | TGI (SF-268 CNS): 53.1 µM | TGI (IGROV1 ovarian): > 100 µM | TGI (M14 melanoma): 31.7 µM | TGI (SK-OV-3 ovarian): 64.9 µM | TGI (HCC-2998 colon): 38.6 µM | TGI (SK-MEL-2 melanoma): 28.8 µM | TGI (ACHN renal): 45.9 µM | TGI (OVCAR-3 ovarian): 41.3 µM | TGI (OVCAR-4 ovarian): 34.9 µM | TGI (CCRF-CEM leukemia): 56.4 µM | TGI (HCT-116 colon): 27.6 µM | TGI (HL-60(TB) leukemia): 38 µM | TGI (A549 NSCLC): > 100 µM | TGI (SW-620 colon): 97.1 µM | TGI (SK-MEL-5 melanoma): 36.6 µM | TGI (K-562 leukemia): 41.8 µM | TGI (HT29 colon): 33.1 µM | TGI (SNB-75 CNS): 59.3 µM | TGI (A498 renal): 39.7 µM | TGI (DMS 273 small cell lung): > 100 µM | TGI (SK-MEL-28 melanoma): 33.6 µM | TGI (UO-31 renal): 29.6 µM | TGI (NCI-H522 lung): 7.08 µM | TGI (U251 CNS): 37.8 µM | TGI (LOX IMVI melanoma): 91.8 µM | TGI (CAKI-1 renal): 58.7 µM | TGI (DLD-1 colon): 37.2 µM | TGI (SNB-19 CNS): 30.5 µM | TGI (SNB-78 CNS): > 100 µM | TGI (SF-539 CNS): 48.1 µM | TGI (TK-10 renal): 64.1 µM | TGI (UACC-62 melanoma): 52.2 µM | TGI (UACC-257 melanoma): 37.4 µM | TGI (NCI-H460 lung): > 100 µM | TGI (SF-295 CNS): 74.1 µM | TGI (DMS 114 small cell lung): 52.1 µM | TGI (RXF-631 renal): 83.9 µM | TGI (EKVX NSCLC): 52.5 µM | TGI (OVCAR-5 ovarian): 45.4 µM | TGI (KM12 colon): 44.9 µM | TGI (COLO 205 colon): 31.4 µM | TGI (LXFL 529 NSCLC): 54.7 µM

O=S(O)CCCCCSSc1ccc(Cl)cc1
TGI (NCI-H23 lung): 44.4 µM | TGI (MALME-3M melanoma): 89.9 µM | TGI (M19-MEL melanoma): 91 µM | TGI (XF 498 CNS): 36 µM | TGI (SF-268 CNS): 23.5 µM | TGI (M14 melanoma): 71.5 µM | TGI (SK-OV-3 ovarian): > 100 µM | TGI (HCC-2998 colon): 73.7 µM | TGI (SK-MEL-2 melanoma): 34.7 µM | TGI (OVCAR-3 ovarian): 31.3 µM | TGI (OVCAR-4 ovarian): > 100 µM | TGI (CCRF-CEM leukemia): > 100 µM | TGI (HCT-116 colon): 77.2 µM | TGI (HL-60(TB) leukemia): > 100 µM | TGI (K-562 leukemia): > 100 µM | TGI (HT29 colon): 70.5 µM | TGI (SNB-75 CNS): 56.2 µM | TGI (A498 renal): 36.6 µM | TGI (SK-MEL-28 melanoma): 66.6 µM | TGI (UO-31 renal): 26.3 µM | TGI (NCI-H522 lung): 28.5 µM | TGI (U251 CNS): 21.7 µM | TGI (LOX IMVI melanoma): 29.9 µM | TGI (HOP-62 NSCLC): 41.3 µM | TGI (DLD-1 colon): 67.5 µM | TGI (SNB-19 CNS): 91.4 µM | TGI (SNB-78 CNS): 70.3 µM | TGI (SF-539 CNS): 29.5 µM | TGI (TK-10 renal): 54.4 µM | TGI (UACC-257 melanoma): 59.3 µM | TGI (NCI-H460 lung): > 100 µM | TGI (RXF-631 renal): 46.8 µM | TGI (EKVX NSCLC): > 100 µM | TGI (RXF 393 renal): 31.4 µM | TGI (OVCAR-5 ovarian): 50.2 µM | TGI (SN12C renal): 31.1 µM | TGI (KM12 colon): 60.7 µM | TGI (LXFL 529 NSCLC): 27 µM
